Assay results reported in the supplement of paper PMC10307832.

Experiments:
Assay in all cases: relative viability (nuclei count vs DMSO), 5 days (fraction); higher = more cells survive
[1] = compound: C[As](C)SC[C@H](NC(=O)CC[C@H](N)C(=O)O)C(=O)NCC(=O)O [Darinaparsin] + Nc1nc2[nH]cc(CCc3ccc(C(=O)N[C@@H](CCC(=O)O)C(=O)O)cc3)c2c(=O)[nH]1 [Pemetrexed] (partner 0.2 µM)
How it was run: (§1)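 One day after seeding in 1536-well plates, lung cancer cell lines were dosed by pin tool. Dosing was either single-drug or a fixed anchor-drug dose plus five library-drug doses (not always all listed) in √10 steps. After 5 days, nuclei were stained in one fix-and-stain step and counted on 4× images, and relative viability is the nuclei count of treated wells over that of vehicle wells, given as the median of duplicate plates.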

Darinaparsin + Dasatinib = compound: C[As](C)SC[C@H](NC(=O)CC[C@H](N)C(=O)O)C(=O)NCC(=O)O [Darinaparsin] + Cc1nc(Nc2ncc(C(=O)Nc3c(C)cccc3Cl)s2)cc(N2CCN(CCO)CC2)n1 [Dasatinib] (partner 0.075 µM)
How it was run: as §1

AZ628 + Pemetrexed = compound: CC1=C(C=C(C=C1)NC(=O)C2=CC(=CC=C2)C(C)(C)C#N)NC3=CC4=C(C=C3)N=CN(C4=O)C [AZ628] + Nc1nc2[nH]cc(CCc3ccc(C(=O)N[C@@H](CCC(=O)O)C(=O)O)cc3)c2c(=O)[nH]1 [Pemetrexed] (partner 0.2 µM)
How it was run: as §1

QS11 + Tozasertib = compound: C1CC2=C(C1)C=C(C=C2)OC3=NC(=C4C(=N3)N(C=N4)CC5=CC=C(C=C5)C6=CC=CC=C6)N[C@@H](CC7=CC=CC=C7)CO [QS11] + Cc1cc(Nc2cc(N3CCN(C)CC3)nc(Sc3ccc(NC(=O)C4CC4)cc3)n2)n[nH]1 [Tozasertib] (partner 0.1 µM)
How it was run: as §1

Cell Line	relative viability ([1]; first compound 0.08 µM)	relative viability ([1]; first compound 2.53 µM)	relative viability ([1]; first compound 8 µM)	relative viability (Darinaparsin + Dasatinib; first compound 0.08 µM)	relative viability (Darinaparsin + Dasatinib; first compound 0.8 µM)	relative viability (Darinaparsin + Dasatinib; first compound 2.53 µM)	relative viability (Darinaparsin + Dasatinib; first compound 8 µM)	relative viability (AZ628 + Pemetrexed; first compound 0.08 µM)	relative viability (AZ628 + Pemetrexed; first compound 0.253 µM)	relative viability (AZ628 + Pemetrexed; first compound 0.8 µM)	relative viability (AZ628 + Pemetrexed; first compound 2.53 µM)	relative viability (AZ628 + Pemetrexed; first compound 8 µM)	relative viability (QS11 + Tozasertib; first compound 0.08 µM)	relative viability (QS11 + Tozasertib; first compound 0.253 µM)	relative viability (QS11 + Tozasertib; first compound 0.8 µM)	relative viability (QS11 + Tozasertib; first compound 2.53 µM)	relative viability (QS11 + Tozasertib; first compound 8 µM)	relative viability ([1]; first compound 0.8 µM)
SW 900	0.402	0.481	0.517	0.512	0.454	0.654	0.514	0.495	0.489	0.471	0.461	0.451	0.573	0.479	0.521	0.408	0.296	
HCC-44	0.7	0.669	0.721					0.629	0.682	0.643	0.706	0.679	1	0.981	0.694	0.792	0.458	0.607
NCI-H441	0.264	0.279	0.246	0.6	0.581	0.558	0.737	0.279	0.252	0.235	0.263	0.26	0.642	0.572	0.582	0.481	0.581	0.239
LU99A	0.19	0.384	0.194	0.627	0.59	0.473	0.519	0.191	0.186	0.215	0.215	0.175	0.269	0.285	0.273	0.296	0.245	0.161
NCI-H661	0.915	0.921	1.02	0.981	0.772	0.89	0.948	0.95	0.979	0.867	0.848	0.822	0.36	0.375	0.299	0.353	0.343	0.922
PC-14	0.134	0.128	0.143	0.189	0.24	0.245	0.211	0.136	0.121	0.105	0.105	0.0944	0.552	0.575	0.487	0.652	0.602	0.131
SK-LU-1	1.21	0.787	1.18	0.173	0.107	0.173	0.183	0.603	0.973	0.885	1.01	0.66	0.293	0.323	0.352	0.312	0.278	0.942
NCI-H2085	0.881	0.854	0.961	0.238	0.25	0.235	0.223	0.951	0.971	0.87	0.865	0.772	0.803	0.77	0.479	0.531	0.467	0.962
NCI-H1395	0.944	0.795	0.792	0.438	0.377	0.427	0.405	0.939	0.789	0.806	0.637	0.712	0.728	0.697	0.748	0.686	0.72	0.719
